Each structure is given as a SMILES string.

Data set [1] relates to SW620 human colon tumour cells. The data set is described as follows: In vitro cell phenotype and substrate phosphorylation assay (phosphohistone H3). The conditions noted are these: SW-620, 24 hours of treatment, read-out: EC50 for inhibition of phosphohistone H3 levels. It counts as cell-based. The method, then:
(c) In Vitro Cell Phenotype and Substrate Phosphorylation Assay
This assay is used to determine the cellular effects of compounds on SW620 human colon tumour cells in vitro. Compounds typically cause inhibition of levels of phosphohistone H3 and an increase in the nuclear area of the cells.
10^4 SW620 cells per well were plated in 100 μl DMEM media (containing 10% FCS and 1% glutamine) (DMEM is Dulbecco's Modified Eagle's Medium (Sigma D6546)) in costar 96 well plates and left overnight at 37° C. and 5% CO2 to adhere. The cells were then dosed with compound diluted in media (50 μl is added to each well to give 0.00015μ-1 μM concentrations of compound) and after 24 hours of treatment with compound, the cells were fixed.
The cells were first examined using a light microscope and any cellular changes in morphology were noted. 100 μl of 3.7% formaldehyde was then added to each well, and the plate was left for at least 30 minutes at room temperature. Decanting and tapping the plate on a paper towel removed the fixative and plates were then washed once in PBS (Dulbecco's Phosphate Buffered Saline (Sigma D8537)) using an automated plate washer. […]
The next day, the antibody was tipped off and the plates were washed twice with PBS. […] 100 μl PBS was added to each well and the plates were sealed ready to analyse. […]

For data set [2], the system named is drug-resistant MCF7-ADR human breast tumour cells. The data set is described as follows: In vitro drug-resistant cell phenotype and substrate phosphorylation assay (phosphohistone H3). The note with it: NCI/ADR-RES, MCF7-ADR cells overexpressing drug-resistant proteins, read-out: EC50 for inhibition of phosphohistone H3 levels. In kind it is cell-based. As to the method: (d) In Vitro Drug-Resistant Cell Phenotype and Substrate Phosphorylation Assay.
This assay is used to determine the cellular effects of compounds on drug-resistant MCF7-ADR human breast tumour cells in vitro.
Compounds typically cause inhibition of levels of phosphohistoneH3 and an increase in the nuclear area of treated cells.
0.8×10^4 MCF7-ADR cells per well were plated in 100 μl DMEM media (containing 10% FCS (foetal calf serum) and 1% glutamine) in costar 96 well plates and left overnight at 37° C. and 5% CO2 to adhere.
All other procedures are identical to those for the above assay using SW620 cells.

The nature of data set [3]: Plasma protein binding assay (equilibrium dialysis). In kind it is in vitro ADME. The conditions noted are these: human plasma, 20 μM compound, dialysed 18 hours at 37° C. As to the method:
(e) Plasma Protein Binding Assay
Plasma protein binding was measured using the equilibrium dialysis technique. Compound was added to human plasma to a concentration of 20 μM and dialysed with isotonic phosphate/sodium chloride buffer for 18 hours at 37° C. The plasma and buffer solutions on each side of the dialysis membrane were analysed using a generic LCUVMS (Waters 2795 HPLC with Micromass ZQ mass spectrometer) and the percentage of free compound in 100% plasma was determined.
On the technique in general: In equilibrium dialysis only unbound substance equilibrates across the membrane.

The term EC50 denotes the concentration needed to bring the measured effect to its halfway point. Regarding `COc1cc(OCCN(C)CCO)c2c(Nc3cc(CC(=O)Nc4cccc(F)c4F)[nH]n3)ncnc2c1` [Compound 9, N-(2,3-difluorophenyl)-2-{3-[(5-{2-[(2-hydroxyethyl)(methyl)amino]ethoxy}-7-methoxyquinazolin-4-yl)amino]-1H-pyrazol-5-yl}acetamide], the EC50 in data set [1] stood at 7.6 nM; in data set [2], 400 nM. The “percentage of free compound in 100% plasma” value in data set [3] turned out to be 3.9%.

For the origin of these results see US20100022476A1, “PYRAZOLYLAMINO SUBSTITUTED QUINAZOLES FOR THE TREATMENT OF CANCER” (ASTRAZENECA AB, priority 2004, published 2010).
